Experimental data taken from US11324798B2, “Materials and methods for treatment of inflammation” (CYTOGEL PHARMA, LLC, priority 2010, dated 2022).
“And” between values parts separate entries of the source, which are not always exact repeats. Equal entries are not always repeated.

Test system: CGRP release from isolated rat tracheae
Assay: Electrical field stimulation (EFS)-evoked release of CGRP from isolated rat tracheae, radioimmunoassay
Format: cell-based
Settings: for Release of CGRP into the incubation medium / Absolute release of CGRP: individual experiments 1-5; for Release of CGRP into the incubation medium, Mean / Absolute release of CGRP, Mean: mean of 5 experiments
Procedure: For the in vitro release experiments, a 10 mg/ml (14.62 mM; MW 684) stock solution of CYT-1010 was made in DMSO, which was further diluted with the oxygenated Krebs solution used in the organ bath: 5.5 μl of this CYT-1010 stock solution was added into 40 ml Krebs to make the highest applied 2 μM concentration of compound CYT-1010. Further dilutions to obtain the lower concentrations were prepared with Krebs solution.
The incubation media containing the respective CYT-1010 concentrations were administered in the stimulated and post-stimulated 8-min fractions.
Since even the highest, 2 μM, concentration of CYT-1010 solution contained negligible amount of DMSO, simple Krebs solution was used in the control experiments.
Rats were exsanguinated in deep anaesthesia (sodium thiobarbital, 50 mg/kg i.p.), then the whole trachea was removed and cleaned of fat and adhering connective tissues. Tracheae from two rats were placed into the same 1.8 ml organ bath to obtain sufficient amount of released peptide and perfused (1 ml/min) with pH-(7.2) controlled oxygenized Krebs solution for 60 minutes (equilibration period) at 37° C. temperature. After discontinuation of the flow, the solution was changed three times for eight minutes to produce pre-stimulated, stimulated, post-stimulated fractions.
Electrical field stimulation (40 V, 0.1 ms, 10 Hz for 120 s; 1200 pulses) was performed to elicit neurotransmitter release at the beginning of the second 8-minute period. Stimulation with 0.1 ms pulse width selectively activates very fast Na^+ channels, which are only present in the membrane of neural structures (Birmingham and Wilson, 1963; Coburn and Tomita 1973; Szolcsányi and Barthó, 1982); therefore, it excites nerve endings without influencing other excitable cells in the tracheae such as smooth muscle cells.
Krebs solution was used in the pre-stimulated fraction for determining the basal CGRP outflow. During the stimulated and post-stimulated fractions, the incubation medium contained the examined concentrations of CYT-1010 (10, 100, 500, 1000 and 2000 nM) in separate experiments, and only one concentration was applied to the same tracheae to avoid neuropeptide depletion. In each group, 5 experiments were performed in parallel in 5 perfusion systems to provide n=5 data per group (10 tracheae per group).
60 male Wistar rats (250-300 g) altogether were divided into 6 experimental groups: Group 1: controls (n=10); Group 2: 10 nM CYT-1010 (n=10); Group 3: 100 nM CYT-1010 (n=10); Group 4: 500 nM CYT-1010 (n=10); Group 5: 1000 nM CYT-1010 (n=10); and Group 6: 2000 nM CYT-1010 (n=10). The total study was performed on three experimental days, two groups every occasion.
Calcitonin gene-related peptide (CGRP) and substance P (SP) concentrations were determined from 400-400 μl samples of organ fluid of the preparations by means of radioimmunoassay methods described in Nemeth et al., 1996, 1998, 1999, 2006; Helyes et al., 1997, 2001, 2006; Borzsei et al., 2008). Each of these publications is incorporated herein by reference in its entirety.
The released amount of the peptides CGRP and SP was calculated as fmol peptide per mg wet tissue (trachea). The absolute release in response to EFS in each experiment was calculated by adding peptide release in the second and third 8-min fractions and then taking off the basal release measured in the first (pre-stimulated) fraction. The detection limits of the RIA assays were 0.2 fmol/tube and 2 fmol/tube for CGRP and SP, respectively.

NC(Cc1ccc(O)cc1)C(=O)NC1CCCCNC(=O)C(Cc2ccccc2)NC(=O)C(Cc2c[nH]c3ccccc23)NC1=O [CYT-1010, H-Tyr-c-[D-Lys-Trp-Phe]]
Effect on CGRP release in the third, post-stimulated fraction (10 nM): did not influence | CGRP release, % increase above baseline (10 nM, after stimulation): 105.75% | Release of CGRP into the incubation medium (10 nM, after stimulation (post-stimulated 8-min fraction)): 0.602 fmol/mg wet tissue and 0.730 fmol/mg wet tissue and 0.193 fmol/mg wet tissue and 0.204 fmol/mg wet tissue and 0.528 fmol/mg wet tissue | Release of CGRP into the incubation medium, Mean (10 nM, after stimulation (post-stimulated fraction)): 0.451 fmol/mg wet tissue | CGRP release, % increase above baseline (10 nM, before stimulation): 0.00% | Release of CGRP into the incubation medium (10 nM, before stimulation (pre-stimulated 8-min fraction)): 0.220 fmol/mg wet tissue and 0.250 fmol/mg wet tissue and 0.146 fmol/mg wet tissue and 0.256 fmol/mg wet tissue and 0.226 fmol/mg wet tissue | Release of CGRP into the incubation medium, Mean (10 nM, before stimulation (pre-stimulated fraction)): 0.219 fmol/mg wet tissue | CGRP release, % increase above baseline (10 nM, during stimulation): 105.75% | Release of CGRP into the incubation medium (10 nM, during stimulation (stimulated 8-min fraction)): 0.600 fmol/mg wet tissue and 0.420 fmol/mg wet tissue and 0.299 fmol/mg wet tissue and 0.308 fmol/mg wet tissue and 0.630 fmol/mg wet tissue | Release of CGRP into the incubation medium, Mean (10 nM, during stimulation (stimulated fraction)): 0.451 fmol/mg wet tissue | Absolute release of CGRP (10 nM): 0.762 fmol/mg wet tissue and 0.650 fmol/mg wet tissue and 0.201 fmol/mg wet tissue and 0.001 fmol/mg wet tissue and 0.706 fmol/mg wet tissue | Absolute release of CGRP, Mean (10 nM): 0.464 fmol/mg wet tissue | CGRP release, % increase above baseline (100 nM, after stimulation): 39.26% | Release of CGRP into the incubation medium (100 nM, after stimulation (post-stimulated 8-min fraction)): 0.284 fmol/mg wet tissue and 0.135 fmol/mg wet tissue and 0.267 fmol/mg wet tissue and 0.231 fmol/mg wet tissue and 0.226 fmol/mg wet tissue | Release of CGRP into the incubation medium, Mean (100 nM, after stimulation (post-stimulated fraction)): 0.229 fmol/mg wet tissue | CGRP release, % increase above baseline (100 nM, before stimulation): 0.00% | Release of CGRP into the incubation medium (100 nM, before stimulation (pre-stimulated 8-min fraction)): 0.243 fmol/mg wet tissue and 0.129 fmol/mg wet tissue and 0.128 fmol/mg wet tissue and 0.138 fmol/mg wet tissue and 0.183 fmol/mg wet tissue | Release of CGRP into the incubation medium, Mean (100 nM, before stimulation (pre-stimulated fraction)): 0.164 fmol/mg wet tissue | CGRP release, % increase above baseline (100 nM, during stimulation): 184.81% | Release of CGRP into the incubation medium (100 nM, during stimulation (stimulated 8-min fraction)): 0.586 fmol/mg wet tissue and 0.281 fmol/mg wet tissue and 0.526 fmol/mg wet tissue and 0.390 fmol/mg wet tissue and 0.554 fmol/mg wet tissue | Release of CGRP into the incubation medium, Mean (100 nM, during stimulation (stimulated fraction)): 0.468 fmol/mg wet tissue | Absolute release of CGRP (100 nM): 0.384 fmol/mg wet tissue and 0.159 fmol/mg wet tissue and 0.538 fmol/mg wet tissue and 0.344 fmol/mg wet tissue and 0.415 fmol/mg wet tissue | Absolute release of CGRP, Mean (100 nM): 0.368 fmol/mg wet tissue | Inhibition of EFS-evoked absolute CGRP release (500 nM (maximal effect), 0.5 µM): 69.9% and 70% | CGRP release, % increase above baseline (500 nM, after stimulation): 48.89% | Release of CGRP into the incubation medium (500 nM, after stimulation (post-stimulated 8-min fraction)): 0.137 fmol/mg wet tissue and 0.206 fmol/mg wet tissue and 0.267 fmol/mg wet tissue and 0.224 fmol/mg wet tissue and 0.213 fmol/mg wet tissue | Release of CGRP into the incubation medium, Mean (500 nM, after stimulation (post-stimulated fraction)): 0.210 fmol/mg wet tissue | CGRP release, % increase above baseline (500 nM, before stimulation): 0.00% | Release of CGRP into the incubation medium (500 nM, before stimulation (pre-stimulated 8-min fraction)): 0.136 fmol/mg wet tissue and 0.148 fmol/mg wet tissue and 0.146 fmol/mg wet tissue and 0.118 fmol/mg wet tissue and 0.157 fmol/mg wet tissue | Release of CGRP into the incubation medium, Mean (500 nM, before stimulation (pre-stimulated fraction)): 0.141 fmol/mg wet tissue | CGRP release, % increase above baseline (500 nM, during stimulation): 70.52% | Release of CGRP into the incubation medium (500 nM, during stimulation (stimulated 8-min fraction)): 0.162 fmol/mg wet tissue and 0.301 fmol/mg wet tissue and 0.304 fmol/mg wet tissue and 0.192 fmol/mg wet tissue and 0.241 fmol/mg wet tissue | Release of CGRP into the incubation medium, Mean (500 nM, during stimulation (stimulated fraction)): 0.240 fmol/mg wet tissue | Absolute release of CGRP (500 nM): 0.028 fmol/mg wet tissue and 0.212 fmol/mg wet tissue and 0.279 fmol/mg wet tissue and 0.181 fmol/mg wet tissue and 0.140 fmol/mg wet tissue | Absolute release of CGRP, Mean (500 nM): 0.168 fmol/mg wet tissue | Inhibition of EFS-evoked absolute CGRP release (1000 nM, 1 µM): 66.3% and 66% | Inhibition of EFS-evoked absolute CGRP release (2000 nM): 49.1% | CGRP release, % increase above baseline (1 microM, after stimulation): 29.82% | Release of CGRP into the incubation medium (1 microM, after stimulation (post-stimulated 8-min fraction)): 0.386 fmol/mg wet tissue and 0.162 fmol/mg wet tissue and 0.130 fmol/mg wet tissue (2×) and 0.121 fmol/mg wet tissue | Release of CGRP into the incubation medium, Mean (1 microM, after stimulation (post-stimulated fraction)): 0.186 fmol/mg wet tissue | CGRP release, % increase above baseline (1 microM, before stimulation): 00.0% | Release of CGRP into the incubation medium (1 microM, before stimulation (pre-stimulated 8-min fraction)): 0.262 fmol/mg wet tissue and 0.135 fmol/mg wet tissue and 0.108 fmol/mg wet tissue (2×) and 0.102 fmol/mg wet tissue | Release of CGRP into the incubation medium, Mean (1 microM, before stimulation (pre-stimulated fraction)): 0.143 fmol/mg wet tissue | CGRP release, % increase above baseline (1 microM, during stimulation): 101.59% | Release of CGRP into the incubation medium (1 microM, during stimulation (stimulated 8-min fraction)): 0.510 fmol/mg wet tissue and 0.433 fmol/mg wet tissue and 0.170 fmol/mg wet tissue (2×) and 0.161 fmol/mg wet tissue | Release of CGRP into the incubation medium, Mean (1 microM, during stimulation (stimulated fraction)): 0.289 fmol/mg wet tissue | Absolute release of CGRP (1 microM): 0.371 fmol/mg wet tissue and 0.325 fmol/mg wet tissue and 0.083 fmol/mg wet tissue (2×) and 0.077 fmol/mg wet tissue | Absolute release of CGRP, Mean (1 microM): 0.188 fmol/mg wet tissue | CGRP release, % increase above baseline (2 microM, after stimulation): −4.59% | Release of CGRP into the incubation medium (2 microM, after stimulation (post-stimulated 8-min fraction)): 0.200 fmol/mg wet tissue and 0.161 fmol/mg wet tissue and 0.133 fmol/mg wet tissue and 0.018 fmol/mg wet tissue and 0.167 fmol/mg wet tissue | Release of CGRP into the incubation medium, Mean (2 microM, after stimulation (post-stimulated fraction)): 0.136 fmol/mg wet tissue | CGRP release, % increase above baseline (2 microM, before stimulation): 0.00% | Release of CGRP into the incubation medium (2 microM, before stimulation (pre-stimulated 8-min fraction)): 0.102 fmol/mg wet tissue and 0.231 fmol/mg wet tissue and 0.097 fmol/mg wet tissue and 0.148 fmol/mg wet tissue and 0.134 fmol/mg wet tissue | Release of CGRP into the incubation medium, Mean (2 microM, before stimulation (pre-stimulated fraction)): 0.142 fmol/mg wet tissue | CGRP release, % increase above baseline (2 microM, during stimulation): 204.09% | Release of CGRP into the incubation medium (2 microM, during stimulation (stimulated 8-min fraction)): 0.198 fmol/mg wet tissue and 0.584 fmol/mg wet tissue and 0.388 fmol/mg wet tissue and 0.645 fmol/mg wet tissue and 0.353 fmol/mg wet tissue | Release of CGRP into the incubation medium, Mean (2 microM, during stimulation (stimulated fraction)): 0.433 fmol/mg wet tissue | Absolute release of CGRP (2 microM): 0.192 fmol/mg wet tissue and 0.284 fmol/mg wet tissue and 0.326 fmol/mg wet tissue and 0.366 fmol/mg wet tissue and 0.253 fmol/mg wet tissue | Absolute release of CGRP, Mean (2 microM): 0.284 fmol/mg wet tissue | Effect on stimulation-evoked CGRP release (10-2000 nM added to the second and third fractions): significantly inhibited | Effect on CGRP release in the third, post-stimulated fraction (100 and 500 nM): significantly inhibited | EC50 (sigmoidal concentration-response curve, non-linear least square fit, 10-2000 nM, read-out: EC50 for inhibition of electrically-evoked CGRP release): 40.6 nM | Effect on CGRP release in the third, post-stimulated fraction (two highest concentrations (1000 and 2000 nM)): abolished
